Patent US20230265151A1, “GIP/GLP1 CO-AGONIST COMPOUNDS” (priority 2020, published 2023)
Where two headings read alike, the source gives them in different places.

Key:
[1] = target: T1, human GIP receptor (hGIPR) (Homo sapiens, UniProt P48546); assay: [125I]-GIP binding, SPA with membranes of CHO cells expressing hGIPR; conditions: human GIPR; geometric mean (SEM, n); read-out: Binding Affinity Ki, nM (SEM, n) hGIPR
T1 construct: expressed in transfected cells; crude membranes
T1 sequence (P48546 22-466): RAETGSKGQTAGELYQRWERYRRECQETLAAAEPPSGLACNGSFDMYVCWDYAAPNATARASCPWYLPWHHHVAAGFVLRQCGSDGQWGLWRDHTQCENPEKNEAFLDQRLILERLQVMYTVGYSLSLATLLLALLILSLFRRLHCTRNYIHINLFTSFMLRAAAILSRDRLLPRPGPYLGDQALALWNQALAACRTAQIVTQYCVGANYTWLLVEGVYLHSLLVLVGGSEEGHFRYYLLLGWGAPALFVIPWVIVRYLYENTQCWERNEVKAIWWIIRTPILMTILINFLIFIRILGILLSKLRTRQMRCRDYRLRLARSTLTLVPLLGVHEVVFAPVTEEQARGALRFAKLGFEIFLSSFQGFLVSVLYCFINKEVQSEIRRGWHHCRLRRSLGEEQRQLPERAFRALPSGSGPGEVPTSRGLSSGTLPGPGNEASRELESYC

[2] = target: T2, human GLP-1 receptor (hGLP-1R) (Homo sapiens, UniProt P43220); assay: [125I]-GLP-1 binding, SPA with membranes of HEK293 cells expressing hGLP-1R; conditions: human GLP-1R; geometric mean (SEM, n); read-out: Binding Affinity Ki, nM (SEM, n) hGLP-1R
T2 construct: expressed in transfected cells; crude membranes

hGCGR = target: T3, hGCGR (Homo sapiens, UniProt P47871); assay: Functional cAMP formation (HTRF) in HEK-293 clonal cells expressing hGCGR, 0.1% bovine casein, without or with 1.0% human serum albumin; type: cell-based; conditions: cAMP, 37° C., read-out: hGCGR EC50, nM (SEM, n)
T3 construct: expressed in transfected cells
How it was run: (§1)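 Cells were stimulated with peptide for 30 min at 37° C, then intracellular cAMP was measured by competitive HTRF (665/620 nm ratio) and converted to nM using a cAMP standard curve. Relative EC50 and Emax came from four-parameter logistic fits of percent maximal response against peptide concentration.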

hGLP-1R = hGLP-1R (Homo sapiens, UniProt P43220); assay: Functional cAMP formation (HTRF) in HEK-293 clonal cells expressing hGLP-1R, 0.1% bovine casein, without or with 1.0% human serum albumin; type: cell-based; set-up: expressed in transfected cells; conditions: 37° C.; for EC50: cAMP, read-out: hGLP-1R EC50, nM (SEM, n); for Emax: HEK293, cAMP, percent of maximal response to GLP-1(7-36)NH2, read-out: hGLP-1R Emax, % ± SEM
How it was run: as §1

hGIPR = target: T4, hGIPR (Homo sapiens, UniProt P48546); assay: Functional cAMP formation (HTRF) in HEK-293 clonal cells expressing hGIPR, 0.1% bovine casein, without or with 1.0% human serum albumin; type: cell-based; conditions: 37° C.; for Emax: HEK293, cAMP, percent of maximal response to GIP(1-42)NH2, read-out: hGIPR Emax, % ± SEM; for EC50: cAMP, read-out: hGIPR EC50, nM (SEM, n)
T4 construct: expressed in transfected cells
T4 sequence (P48546 22-466): T1 sequence (P48546 22-466)
How it was run: as §1

[3] = 0.1% bovine casein (no human serum albumin), geometric mean
[4] = 0.1% bovine casein and 1.0% human serum albumin, geometric mean (SEM, n)
[5] = 0.1% bovine casein and 1.0% human serum albumin
[6] = 0.1% bovine casein, arithmetic mean

T3 sequence (P47871 26-477): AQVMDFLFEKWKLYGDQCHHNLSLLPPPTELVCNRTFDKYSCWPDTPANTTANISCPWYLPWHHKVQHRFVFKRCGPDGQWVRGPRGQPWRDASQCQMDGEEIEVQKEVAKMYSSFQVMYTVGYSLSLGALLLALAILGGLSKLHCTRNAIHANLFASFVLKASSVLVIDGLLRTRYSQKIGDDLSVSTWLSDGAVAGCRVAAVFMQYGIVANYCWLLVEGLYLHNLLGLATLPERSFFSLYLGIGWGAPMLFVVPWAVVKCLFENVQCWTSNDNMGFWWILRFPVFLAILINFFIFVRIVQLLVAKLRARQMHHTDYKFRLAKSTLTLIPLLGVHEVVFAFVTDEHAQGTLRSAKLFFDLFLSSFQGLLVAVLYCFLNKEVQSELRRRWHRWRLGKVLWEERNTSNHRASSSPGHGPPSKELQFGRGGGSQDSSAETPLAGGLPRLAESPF
T2 sequence (P43220 24-463): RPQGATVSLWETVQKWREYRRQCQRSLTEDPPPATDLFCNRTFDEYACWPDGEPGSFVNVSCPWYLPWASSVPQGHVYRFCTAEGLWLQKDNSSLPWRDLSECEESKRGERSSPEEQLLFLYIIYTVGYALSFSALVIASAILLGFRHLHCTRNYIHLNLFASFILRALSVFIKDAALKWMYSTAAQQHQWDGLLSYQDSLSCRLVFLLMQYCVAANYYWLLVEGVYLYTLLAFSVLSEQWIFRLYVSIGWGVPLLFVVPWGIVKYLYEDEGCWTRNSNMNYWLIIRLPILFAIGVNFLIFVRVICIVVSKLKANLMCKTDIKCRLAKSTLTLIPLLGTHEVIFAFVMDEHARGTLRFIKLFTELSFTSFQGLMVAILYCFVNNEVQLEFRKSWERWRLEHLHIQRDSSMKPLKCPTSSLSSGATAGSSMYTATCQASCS
Chain of hGLP-1R (P43220 24-463): as above

Structure (SMILES)	Ki [1]	Ki [2]	EC50 (hGCGR; [3])	EC50 (hGCGR; [4])	EC50 (hGLP-1R; [3])	Emax (hGIPR; [5])	EC50 (hGIPR; [3])	EC50 (hGIPR; [4])	Emax (hGLP-1R; [6])	EC50 (hGLP-1R; [4])	Emax (hGLP-1R; [5])
CCCCCCCCCCCC(=O)N[C@@H](CCC(=O)NCCOCCOCC(=O)NCCOCCOCC(=O)NCCCC[C@H](NC(=O)[C@H](CCCN)NC(=O)[C@H](CC(=O)O)NC(=O)[C@H](CC(C)C)NC(=O)[C@](C)(CC(C)C)NC(=O)[C@@H](NC(=O)C(C)(C)NC(=O)[C@H](Cc1ccncc1)NC(=O)[C@H](CC(=O)O)NC(=O)[C@H](CO)NC(=O)[C@@H](NC(=O)[C@](C)(Cc1ccccc1F)NC(=O)[C@@H](NC(=O)CNC(=O)[C@H](CCC(=O)O)NC(=O)C(C)(C)NC(=O)[C@@H](N)Cc1ccc(O)cc1)[C@@H](C)O)[C@@H](C)O)[C@@H](C)CC)C(=O)N[C@@H](C)C(=O)N[C@@H](CCC(N)=O)C(=O)NC(C)(C)C(=O)N[C@@H](CCCN)C(=O)N[C@@H](Cc1ccccc1)C(=O)N[C@H](C(=O)N[C@H](CCC(=O)O)C(=O)N[C@@](C)(Cc1ccc(O)cc1)C(=O)N[C@@H](CC(C)C)C(=O)N[C@H](C(=O)N[C@@H](CCCCNC(=O)COCCOCCNC(=O)COCCOCCNC(=O)CC[C@H](NC(=O)CCCCCCCCCCC)C(=O)O)C(=O)NCC(=O)NCC(=O)N1CCC[C@H]1C(=O)N[C@@H](CO)C(=O)N[C@@H](CO)C(=O)NCC(=O)N[C@@H](C)C(=O)N1CCC[C@H]1C(=O)N1CCC[C@H]1C(=O)N1CCC[C@H]1C(=O)N[C@@H](CO)C(N)=O)[C@@H](C)CC)[C@@H](C)CC)C(=O)O [Example 414]	0.0229 nM	0.194 nM	> 9950 nM	> 9950 nM	0.119 nM	92.2%	0.00961 nM	0.274 nM			
CCCCCCCCCCCC(=O)N[C@@H](CCC(=O)NCCOCCOCC(=O)NCCOCCOCC(=O)NCCCC[C@H](NC(=O)[C@H](CCCN)NC(=O)[C@H](CC(=O)O)NC(=O)[C@H](CC(C)C)NC(=O)[C@](C)(CC(C)C)NC(=O)[C@@H](NC(=O)C(C)(C)NC(=O)[C@H](CCCCNC(=O)COCCOCCNC(=O)COCCOCCNC(=O)CC[C@H](NC(=O)CCCCCCCCCCC)C(=O)O)NC(=O)[C@H](CC(=O)O)NC(=O)[C@H](CO)NC(=O)[C@@H](NC(=O)[C@](C)(Cc1ccccc1F)NC(=O)[C@@H](NC(=O)CNC(=O)[C@H](CCC(=O)O)NC(=O)C(C)(C)NC(=O)[C@@H](N)Cc1ccc(O)cc1)[C@@H](C)O)[C@@H](C)O)[C@@H](C)CC)C(=O)N[C@@H](C)C(=O)N[C@@H](CCC(N)=O)C(=O)NC(C)(C)C(=O)N[C@@H](Cc1ccncc1)C(=O)N[C@@H](Cc1ccccc1)C(=O)N[C@H](C(=O)N[C@H](CCC(=O)O)C(=O)N[C@@](C)(Cc1ccc(O)cc1)C(=O)N[C@@H](CC(C)C)C(=O)N[C@H](C(=O)N[C@@H](CCC(=O)O)C(=O)NCC(=O)NCC(=O)N1CCC[C@H]1C(=O)N[C@@H](CO)C(=O)N[C@@H](CO)C(=O)NCC(=O)N[C@@H](C)C(=O)N1CCC[C@H]1C(=O)N1CCC[C@H]1C(=O)N1CCC[C@H]1C(=O)N[C@@H](CO)C(N)=O)[C@@H](C)CC)[C@@H](C)CC)C(=O)O [Example 415]	0.0152 nM	0.156 nM	> 9950 nM	> 9950 nM	0.122 nM	93.9%	0.00991 nM		109%		
CCCCCCCCCCCC(=O)N[C@@H](CCC(=O)NCCOCCOCC(=O)NCCOCCOCC(=O)NCCCC[C@H](NC(=O)[C@H](CCCN)NC(=O)[C@H](CC(=O)O)NC(=O)[C@H](CC(C)C)NC(=O)[C@](C)(CC(C)C)NC(=O)[C@@H](NC(=O)C(C)(C)NC(=O)[C@H](CCCCNC(=O)COCCOCCNC(=O)COCCOCCNC(=O)CC[C@H](NC(=O)CCCCCCCCCCC)C(=O)O)NC(=O)[C@H](CC(=O)O)NC(=O)[C@H](CO)NC(=O)[C@@H](NC(=O)[C@](C)(Cc1ccccc1F)NC(=O)[C@@H](NC(=O)CNC(=O)[C@H](CCC(=O)O)NC(=O)C(C)(C)NC(=O)[C@@H](N)Cc1ccc(O)cc1)[C@@H](C)O)[C@@H](C)O)[C@@H](C)CC)C(=O)N[C@@H](C)C(=O)N[C@@H](CCC(N)=O)C(=O)NC(C)(C)C(=O)N[C@@H](CCCN)C(=O)N[C@@H](Cc1ccccc1)C(=O)N[C@H](C(=O)N[C@H](CCC(=O)O)C(=O)N[C@@](C)(Cc1ccc(O)cc1)C(=O)N[C@@H](CC(C)C)C(=O)N[C@H](C(=O)N[C@@H](CCC(=O)O)C(=O)NCC(=O)NCC(=O)N1CCC[C@H]1C(=O)N[C@@H](CO)C(=O)N[C@@H](CO)C(=O)NCC(=O)N[C@@H](C)C(=O)N1CCC[C@H]1C(=O)N1CCC[C@H]1C(=O)N1CCC[C@H]1C(=O)N[C@@H](CO)C(N)=O)[C@@H](C)CC)[C@@H](C)CC)C(=O)O [Example 417]	0.0214 nM	0.167 nM	> 9950 nM	> 9950 nM	0.0675 nM	96.4%	0.00651 nM		109%	2.66 nM	
CCCCCCCCCCCC(=O)N[C@@H](CCC(=O)NCCOCCOCC(=O)NCCOCCOCC(=O)NCCCC[C@H](NC(=O)[C@H](CCCN)NC(=O)[C@H](CC(=O)O)NC(=O)[C@H](CC(C)C)NC(=O)[C@](C)(CC(C)C)NC(=O)[C@@H](NC(=O)C(C)(C)NC(=O)[C@H](Cc1ccncc1)NC(=O)[C@H](CC(=O)O)NC(=O)[C@H](CO)NC(=O)[C@@H](NC(=O)[C@](C)(Cc1ccccc1F)NC(=O)[C@@H](NC(=O)CNC(=O)[C@H](CCC(=O)O)NC(=O)C(C)(C)NC(=O)[C@@H](N)Cc1ccc(O)cc1)[C@@H](C)O)[C@@H](C)O)[C@@H](C)CC)C(=O)N[C@@H](C)C(=O)N[C@@H](CCC(N)=O)C(=O)NC(C)(C)C(=O)N[C@H](C(=O)N[C@@H](Cc1ccccc1)C(=O)N[C@H](C(=O)N[C@H](CCC(=O)O)C(=O)N[C@@](C)(Cc1ccc(O)cc1)C(=O)N[C@@H](CC(C)C)C(=O)N[C@H](C(=O)N[C@@H](CCCCNC(=O)COCCOCCNC(=O)COCCOCCNC(=O)CC[C@H](NC(=O)CCCCCCCCCCC)C(=O)O)C(=O)NCC(=O)NCC(=O)N1CCC[C@H]1C(=O)N[C@@H](CO)C(=O)N[C@@H](CO)C(=O)NCC(=O)N[C@@H](C)C(=O)N1CCC[C@H]1C(=O)N1CCC[C@H]1C(=O)N1CCC[C@H]1C(=O)N[C@@H](CO)C(N)=O)[C@@H](C)CC)[C@@H](C)CC)[C@@H](C)O)C(=O)O [Example 419]	0.0166 nM	0.265 nM	> 9950 nM	> 9950 nM	0.132 nM	88.2%	0.00958 nM	0.44 nM	113%		97.3%
CCCCCCCCCCCC(=O)N[C@@H](CCC(=O)NCCOCCOCC(=O)NCCOCCOCC(=O)NCCOCCOCC(=O)NCCCC[C@H](NC(=O)[C@H](CCCN)NC(=O)[C@H](CC(=O)O)NC(=O)[C@H](CC(C)C)NC(=O)[C@](C)(CC(C)C)NC(=O)[C@@H](NC(=O)C(C)(C)NC(=O)[C@H](Cc1ccncc1)NC(=O)[C@H](CC(=O)O)NC(=O)[C@H](CO)NC(=O)[C@@H](NC(=O)[C@](C)(Cc1ccccc1F)NC(=O)[C@@H](NC(=O)CNC(=O)[C@H](CCC(=O)O)NC(=O)C(C)(C)NC(=O)[C@@H](N)Cc1ccc(O)cc1)[C@@H](C)O)[C@@H](C)O)[C@@H](C)CC)C(=O)N[C@@H](C)C(=O)N[C@@H](CCC(N)=O)C(=O)NC(C)(C)C(=O)N[C@@H](CCCCNC(=O)COCCOCCNC(=O)COCCOCCNC(=O)COCCOCCNC(=O)CC[C@H](NC(=O)CCCCCCCCCCC)C(=O)O)C(=O)N[C@@H](Cc1ccccc1)C(=O)N[C@H](C(=O)N[C@H](CCC(=O)O)C(=O)N[C@@](C)(Cc1ccc(O)cc1)C(=O)N[C@@H](CC(C)C)C(=O)N[C@H](C(=O)N[C@@H](CCC(=O)O)C(=O)NCC(=O)NCC(=O)N1CCC[C@H]1C(=O)N[C@@H](CO)C(=O)N[C@@H](CO)C(=O)NCC(=O)N[C@@H](C)C(=O)N1CCC[C@H]1C(=O)N1CCC[C@H]1C(=O)N1CCC[C@H]1C(=O)N[C@@H](CO)C(N)=O)[C@@H](C)CC)[C@@H](C)CC)C(=O)O [Example 422]	0.0218 nM	0.194 nM	> 9950 nM	> 9950 nM	0.0729 nM	97.5%	0.00655 nM				
